From patent publication US8138189B2, “Substituted benzene compounds as modulators of the glucocorticoid receptor” (Hoffman-La Roche Inc., priority 2009, dated 2012)

Molecular target: T1, full length human recombinant glucocorticoid receptor (Homo sapiens, UniProt P04150)
T1 construct: partially purified full length human recombinant glucocorticoid receptor; purchased Panvera/Invitrogen PV4302
T1 sequence (P04150 1-777): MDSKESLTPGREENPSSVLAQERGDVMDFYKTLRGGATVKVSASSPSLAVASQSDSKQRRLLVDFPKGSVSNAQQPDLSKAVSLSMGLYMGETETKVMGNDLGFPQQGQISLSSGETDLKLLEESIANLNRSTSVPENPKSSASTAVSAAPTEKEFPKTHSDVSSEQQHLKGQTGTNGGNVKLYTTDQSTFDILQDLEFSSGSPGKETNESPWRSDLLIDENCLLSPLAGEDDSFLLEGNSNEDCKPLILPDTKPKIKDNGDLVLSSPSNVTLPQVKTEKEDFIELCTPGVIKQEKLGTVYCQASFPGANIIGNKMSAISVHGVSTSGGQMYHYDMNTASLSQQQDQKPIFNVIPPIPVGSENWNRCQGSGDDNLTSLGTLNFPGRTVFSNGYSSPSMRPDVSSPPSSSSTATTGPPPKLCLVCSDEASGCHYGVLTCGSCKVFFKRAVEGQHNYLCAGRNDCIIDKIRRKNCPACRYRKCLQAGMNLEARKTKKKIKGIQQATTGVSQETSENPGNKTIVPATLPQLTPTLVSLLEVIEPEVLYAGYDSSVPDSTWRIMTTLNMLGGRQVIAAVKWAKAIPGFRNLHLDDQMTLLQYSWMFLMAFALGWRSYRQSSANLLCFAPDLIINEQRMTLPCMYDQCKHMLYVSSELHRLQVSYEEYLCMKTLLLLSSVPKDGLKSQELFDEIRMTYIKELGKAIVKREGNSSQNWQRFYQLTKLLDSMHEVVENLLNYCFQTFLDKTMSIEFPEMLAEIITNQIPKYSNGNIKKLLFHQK
Experiment: Glucocorticoid Receptor Binding Assay (fluorescence polarization competitor assay, Fluormone GS Far Red tracer)
Method in brief: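 Partially purified full-length recombinant human GR with a stabilizing coactivator peptide was incubated with Fluormone GS Far Red tracer and serially diluted compound for 3 h at 22 °C in the dark, pH 7.4. Fluorescence polarization was read at 610-660 nm. IC50 came from sigmoidal fitting, and Ki from Cheng-Prusoff.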

| Compound | Ki |
| --- | --- |
| CCOC(=O)c1ccc(COc2ccc(C(C)C(O)(c3ccnc(C)c3)C(F)(F)F)c(Cl)c2)cn1 (stereo not drawn) [Example 97, 5-{3-Chloro-4-[3,3,3-trifluoro-2-hydroxy-1-methyl-2-(2-methyl-pyridin-4-yl)-propyl]-phenoxymethyl}-pyridine-2-carboxylic acid ethyl ester] | 9.1 nM |
| COC(=O)c1cccc(COc2ccc(C(C)C(O)(c3cnc(C)cn3)C(F)(F)F)c(Cl)c2)c1 (stereo not drawn) [Example 3, 3-{3-Chloro-4-[3,3,3-trifluoro-2-hydroxy-1-methyl-2-(5-methyl-pyrazin-2-yl)-propyl]-phenoxymethyl}-benzoic acid methyl ester] | 52.7 nM |
| CC(c1ccc(OCc2ccc(C(=O)O)cn2)cc1Cl)C(O)(c1ccnc(Cl)c1)C(F)(F)F (stereo not drawn) [Example 111, 6-{3-Chloro-4-[2-(2-chloro-pyridin-4-yl)-3,3,3-trifluoro-2-hydroxy-1-methyl-propyl]-phenoxymethyl}-nicotinic acid] | 13 nM |
| COC(=O)c1cnc(OCc2ccc([C@@H](C)[C@@](O)(c3ccnc(Cl)c3)C(F)(F)F)c(Cl)c2)nc1 (stereo in doubt) [Example 124, 2-{3-Chloro-4-[2-(2-chloro-pyridin-4-yl)-3,3,3-trifluoro-2-hydroxy-1-methyl-propyl]-benzyloxy}-pyrimidine-5-carboxylic acid methyl ester] | 8.8 nM |
| Cc1cnc([C@](O)([C@H](C)c2ccc(OCc3ccc(C(=O)O)cc3)cc2Cl)C(F)(F)F)cn1 [Example 6, 4-{3-Chloro-4-[(1R,2R)-3,3,3-trifluoro-2-hydroxy-1-methyl-2-(5-methyl-pyrazin-2-yl)-propyl]-phenoxymethyl}-benzoic acid] | 8.2 nM |
| CC(c1ccc(Nc2ccc(C(=O)O)cc2)cc1Cl)C(O)(c1ccnc(Cl)c1)C(F)(F)F (stereo not drawn) [Example 77, 4-{3-Chloro-4-[2-(2-chloro-pyridin-4-yl)-3,3,3-trifluoro-2-hydroxy-1-methyl-propyl]-phenylamino}-benzoic acid] | 13.9 nM |
| COC(=O)c1cnc(COc2ccc(C(C)C(O)(c3ccnc(Cl)c3)C(F)(F)F)c(Cl)c2)cn1 (stereo not drawn) [Example 112, 5-{3-Chloro-4-[2-(2-chloro-pyridin-4-yl)-3,3,3-trifluoro-2-hydroxy-1-methyl-propyl]-phenoxymethyl}-pyrazine-2-carboxylic acid methyl ester] | 9.2 nM |
| C[C@H](c1ccc(-c2ccc(C(=O)O)cc2)cc1Cl)[C@@](O)(c1ccnc(-c2ccc(C(=O)O)cc2)c1)C(F)(F)F (stereo in doubt) [Example 57, 4′-{2-[2-(4-Carboxy-phenyl)-pyridin-4-yl]-3,3,3-trifluoro-2-hydroxy-1-methyl-propyl}-3′-chloro-biphenyl-4-carboxylic acid] | 242 nM |
| CC(c1ccc(Oc2cccc(CC(=O)O)c2)cc1Cl)C(O)(c1ccnc(Cl)c1)C(F)(F)F (stereo not drawn) [Example 87, (3-{3-Chloro-4-[2-(2-chloro-pyridin-4-yl)-3,3,3-trifluoro-2-hydroxy-1-methyl-propyl]-phenoxy}-phenyl)-acetic acid] | 15.1 nM |
| C[C@H](c1ccc(Oc2ccc(CC(=O)O)cc2)cc1Cl)[C@@](O)(c1ccc(=O)n(C)c1)C(F)(F)F (stereo in doubt) [Example 158, (4-{3-Chloro-4-[3,3,3-trifluoro-2-hydroxy-1-methyl-2-(1-methyl-6-oxo-1,6-dihydro-pyridin-3-yl)-propyl]-phenoxy}-phenyl)-acetic acid] | 7.1 nM |
| COC(=O)c1ccc(-c2ccc([C@@H](C)[C@@](O)(c3ccnc(Cl)c3)C(F)(F)F)c(Cl)c2)cc1 (stereo in doubt) [Example 49, 3′-Chloro-4′-[2-(2-chloro-pyridin-4-yl)-3,3,3-trifluoro-2-hydroxy-1-methyl-propyl]-biphenyl-4-carboxylic acid methyl ester] | 18.6 nM |
| COC(=O)Cc1ccc(COc2ccc([C@H](C)[C@](O)(c3cnc4ccccc4c3)C(F)(F)F)c(Cl)c2)cc1 (stereo in doubt) [Example 144, {4-[3-Chloro-4-(3,3,3-trifluoro-2-hydroxy-1-methyl-2-quinolin-3-yl-propyl)-phenoxymethyl]-phenyl}-acetic acid methyl ester] | 3.6 nM |
| Cc1cc(C(O)(C(C)c2ccc(CCc3ccc(C(=O)O)cc3)cc2Cl)C(F)(F)F)ccn1 (stereo not drawn) [Example 67, 4-(2-{3-Chloro-4-[3,3,3-trifluoro-2-hydroxy-1-methyl-2-(2-methyl-pyridin-4-yl)-propyl]-phenyl}-ethyl)-benzoic acid] | 24.4 nM |

Results, then the compound that gave them:

| Ki | Compound |
| --- | --- |
| 18.1 nM | C[C@@H](c1ccc(-c2ccc(C(=O)O)c(Cl)c2)cc1Cl)[C@](O)(c1ccc(=O)n(C)c1)C(F)(F)F (stereo in doubt) [Example 169, 3,3′-Dichloro-4′-[3,3,3-trifluoro-2-hydroxy-1-methyl-2-(1-methyl-6-oxo-1,6-dihydro-pyridin-3-yl)-propyl]-biphenyl-4-carboxylic acid] |
| 1.1 nM | Cc1cc(C(=O)O)cnc1Oc1ccc([C@H](C)[C@](O)(c2cc(C)c(=O)n(C)c2)C(F)(F)F)c(Cl)c1 (relative stereo) [Example 252, 6-{3-Chloro-4-[2-(1,5-dimethyl-6-oxo-1,6-dihydro-pyridin-3-yl)-3,3,3-trifluoro-2-hydroxy-1-methyl-propyl]-phenoxy}-5-methyl-nicotinic acid] |
| 1.4 nM | Cc1cc([C@@](O)([C@@H](C)c2ccc(Oc3ccc(C(=O)O)cn3)cc2Cl)C(F)(F)F)cn(C)c1=O (racemic) [Example 218, 6-{3-Chloro-4-[2-(1,5-dimethyl-6-oxo-1,6-dihydro-pyridin-3-yl)-3,3,3-trifluoro-2-hydroxy-1-methyl-propyl]-phenoxy}-nicotinic acid] |
| 1.4 nM | Cc1cc([C@@](O)([C@@H](C)c2ccc(Oc3ccc(C(=O)O)c(C(F)(F)F)n3)cc2Cl)C(F)(F)F)cn(C)c1=O (stereo in doubt) [Example 209, 6-{3-Chloro-4-[2-(1,5-dimethyl-6-oxo-1,6-dihydro-pyridin-3-yl)-3,3,3-trifluoro-2-hydroxy-1-methyl-propyl]-phenoxy}-2-trifluoromethyl-nicotinic acid] |
| 0.7 nM | Cc1cc([C@@](O)([C@@H](C)c2ccc(Oc3ccc(Cl)c(C(=O)O)c3)cc2Cl)C(F)(F)F)cn(C)c1=O (stereo in doubt) [Example 211, 2-Chloro-5-{3-chloro-4-[2-(1,5-dimethyl-6-oxo-1,6-dihydro-pyridin-3-yl)-3,3,3-trifluoro-2-hydroxy-1-methyl-propyl]-phenoxy}-benzoic acid] |
| 68.2 nM | CCn1cc([C@@](O)([C@@H](C)c2ccc(-c3ccc(C(=O)O)c(F)c3)cc2Cl)C(F)(F)F)ccc1=O (relative stereo) [Example 186, 3′-Chloro-4′-[2-(1-ethyl-6-oxo-1,6-dihydro-pyridin-3-yl)-3,3,3-trifluoro-2-hydroxy-1-methyl-propyl]-3-fluoro-biphenyl-4-carboxylic acid] |
| 47.9 nM | C[C@@H](c1cc(F)c(Oc2ccc(C(=O)O)c(F)c2)cc1Cl)[C@](O)(c1ccc(=O)n(C)c1)C(F)(F)F (stereo in doubt) [Example 202, 4-{5-Chloro-2-fluoro-4-[3,3,3-trifluoro-2-hydroxy-1-methyl-2-(1-methyl-6-oxo-1,6-dihydro-pyridin-3-yl)-propyl]-phenoxy}-2-fluoro-benzoic acid] |
| 7.3 nM | COC(=O)c1ccc(-c2ccc([C@H](C)[C@](O)(c3ccc(=O)n(C)c3)C(F)(F)F)c(Cl)c2)cc1OC (stereo in doubt) [Example 173, 3′-Chloro-3-methoxy-4′-[3,3,3-trifluoro-2-hydroxy-1-methyl-2-(1-methyl-6-oxo-1,6-dihydro-pyridin-3-yl)-propyl]-biphenyl-4-carboxylic acid methyl ester] |
| 0.4 nM | Cc1cc([C@@](O)([C@@H](C)c2ccc(Oc3ccc(F)c(C(=O)O)c3)cc2Cl)C(F)(F)F)cn(C)c1=O (relative stereo) [Example 213, 5-{3-Chloro-4-[2-(1,5-dimethyl-6-oxo-1,6-dihydro-pyridin-3-yl)-3,3,3-trifluoro-2-hydroxy-1-methyl-propyl]-phenoxy}-2-fluoro-benzoic acid] |
| 10.3 nM | CCOC(=O)c1cc(Oc2ccc(Cl)c([C@H](C)[C@](O)(c3ccc(=O)n(C)c3)C(F)(F)F)c2)ccc1F (stereo in doubt) [Example 193, 5-{4-Chloro-3-[3,3,3-trifluoro-2-hydroxy-1-methyl-2-(1-methyl-6-oxo-1,6-dihydro-pyridin-3-yl)-propyl]-phenoxy}-2-fluoro-benzoic acid ethyl ester] |
| 64.5 nM | C[C@H](c1ccc(Oc2ccc(C(=O)O)c(Cl)c2)cc1Cl)[C@@](O)(c1ccc2nccnc2c1)C(F)(F)F (stereo in doubt) [Example 228, 2-Chloro-4-[3-chloro-4-(3,3,3-trifluoro-2-hydroxy-1-methyl-2-quinoxalin-6-yl-propyl)-phenoxy]-benzoic acid] |
